Assays:
Format in all cases: biochemical
Details in all cases: ATP at or close to Km
[1] = biological target: Tie2 (Homo sapiens, UniProt Q02763); assay: Tie2 inhibition screen
Source text: (§1) Compound(s) were screened for their ability to inhibit Arg (Abl-2), FGFR1, MLK1, Tie2, and TrkA using screening methods known to one of ordinary skill in the art. All of the above enzymes were screened with ATP concentrations at or close to the Km for ATP.

[2] = biological target: MLK1 (Homo sapiens, UniProt P80192); assay: MLK1 inhibition screen
Chain of MLK1 (P80192 whole entry, species assumed): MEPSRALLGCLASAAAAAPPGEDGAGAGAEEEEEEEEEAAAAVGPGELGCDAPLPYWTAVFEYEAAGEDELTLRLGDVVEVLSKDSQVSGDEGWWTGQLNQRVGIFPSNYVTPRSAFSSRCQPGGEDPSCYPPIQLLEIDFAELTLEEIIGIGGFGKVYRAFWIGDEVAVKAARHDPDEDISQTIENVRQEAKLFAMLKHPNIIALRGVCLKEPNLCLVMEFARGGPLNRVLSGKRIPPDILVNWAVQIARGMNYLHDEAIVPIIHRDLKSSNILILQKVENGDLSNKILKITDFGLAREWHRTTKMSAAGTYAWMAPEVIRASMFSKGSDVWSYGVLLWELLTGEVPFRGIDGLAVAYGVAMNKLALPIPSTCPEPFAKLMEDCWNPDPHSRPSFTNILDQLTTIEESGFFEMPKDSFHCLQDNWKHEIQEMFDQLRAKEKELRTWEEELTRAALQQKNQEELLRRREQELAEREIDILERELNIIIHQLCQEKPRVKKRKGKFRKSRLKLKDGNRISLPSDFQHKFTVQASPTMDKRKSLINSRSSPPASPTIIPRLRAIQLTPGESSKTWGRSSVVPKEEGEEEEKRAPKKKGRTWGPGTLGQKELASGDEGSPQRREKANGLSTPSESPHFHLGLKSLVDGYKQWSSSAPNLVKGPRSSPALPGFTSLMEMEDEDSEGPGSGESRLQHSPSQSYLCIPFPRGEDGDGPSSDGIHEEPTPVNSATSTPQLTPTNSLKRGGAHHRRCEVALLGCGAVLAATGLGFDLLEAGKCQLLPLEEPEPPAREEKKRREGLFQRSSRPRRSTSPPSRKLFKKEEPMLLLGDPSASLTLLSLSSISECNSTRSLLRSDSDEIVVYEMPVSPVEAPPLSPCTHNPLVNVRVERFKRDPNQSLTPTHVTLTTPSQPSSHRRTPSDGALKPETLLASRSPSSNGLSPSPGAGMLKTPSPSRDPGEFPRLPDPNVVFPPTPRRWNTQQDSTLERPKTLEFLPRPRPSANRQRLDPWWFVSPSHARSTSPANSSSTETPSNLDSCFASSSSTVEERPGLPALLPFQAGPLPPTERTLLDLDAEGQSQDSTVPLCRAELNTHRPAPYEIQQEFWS
Source text: as §1

[3] = biological target: TrkA (Homo sapiens, UniProt P04629); assay: TrkA inhibition screen
Chain of TrkA (P04629 33-796, species assumed): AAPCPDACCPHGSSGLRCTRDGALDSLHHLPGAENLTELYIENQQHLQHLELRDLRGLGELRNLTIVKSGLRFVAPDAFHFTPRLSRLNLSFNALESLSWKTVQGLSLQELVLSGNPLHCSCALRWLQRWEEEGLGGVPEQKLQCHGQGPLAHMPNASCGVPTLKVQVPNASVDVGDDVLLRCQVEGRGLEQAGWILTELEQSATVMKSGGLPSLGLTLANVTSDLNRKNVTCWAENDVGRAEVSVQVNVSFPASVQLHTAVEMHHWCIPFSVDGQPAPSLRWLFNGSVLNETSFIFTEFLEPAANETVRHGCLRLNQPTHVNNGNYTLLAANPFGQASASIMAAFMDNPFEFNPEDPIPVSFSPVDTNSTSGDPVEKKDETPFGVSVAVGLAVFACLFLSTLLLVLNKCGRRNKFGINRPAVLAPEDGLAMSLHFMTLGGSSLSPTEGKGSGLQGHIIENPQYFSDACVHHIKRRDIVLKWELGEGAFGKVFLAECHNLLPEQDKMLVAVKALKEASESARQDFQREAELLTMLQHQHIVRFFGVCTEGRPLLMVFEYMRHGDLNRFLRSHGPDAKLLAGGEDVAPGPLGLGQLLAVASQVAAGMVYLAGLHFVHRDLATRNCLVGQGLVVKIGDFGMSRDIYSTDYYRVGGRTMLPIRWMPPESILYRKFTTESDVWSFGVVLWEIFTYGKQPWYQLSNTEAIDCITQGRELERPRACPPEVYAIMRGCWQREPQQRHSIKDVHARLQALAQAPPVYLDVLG
Source text: as §1

[4] = Table 6, introduced as Ki values

Chain of Tie2 (Q02763 23-1124, species assumed): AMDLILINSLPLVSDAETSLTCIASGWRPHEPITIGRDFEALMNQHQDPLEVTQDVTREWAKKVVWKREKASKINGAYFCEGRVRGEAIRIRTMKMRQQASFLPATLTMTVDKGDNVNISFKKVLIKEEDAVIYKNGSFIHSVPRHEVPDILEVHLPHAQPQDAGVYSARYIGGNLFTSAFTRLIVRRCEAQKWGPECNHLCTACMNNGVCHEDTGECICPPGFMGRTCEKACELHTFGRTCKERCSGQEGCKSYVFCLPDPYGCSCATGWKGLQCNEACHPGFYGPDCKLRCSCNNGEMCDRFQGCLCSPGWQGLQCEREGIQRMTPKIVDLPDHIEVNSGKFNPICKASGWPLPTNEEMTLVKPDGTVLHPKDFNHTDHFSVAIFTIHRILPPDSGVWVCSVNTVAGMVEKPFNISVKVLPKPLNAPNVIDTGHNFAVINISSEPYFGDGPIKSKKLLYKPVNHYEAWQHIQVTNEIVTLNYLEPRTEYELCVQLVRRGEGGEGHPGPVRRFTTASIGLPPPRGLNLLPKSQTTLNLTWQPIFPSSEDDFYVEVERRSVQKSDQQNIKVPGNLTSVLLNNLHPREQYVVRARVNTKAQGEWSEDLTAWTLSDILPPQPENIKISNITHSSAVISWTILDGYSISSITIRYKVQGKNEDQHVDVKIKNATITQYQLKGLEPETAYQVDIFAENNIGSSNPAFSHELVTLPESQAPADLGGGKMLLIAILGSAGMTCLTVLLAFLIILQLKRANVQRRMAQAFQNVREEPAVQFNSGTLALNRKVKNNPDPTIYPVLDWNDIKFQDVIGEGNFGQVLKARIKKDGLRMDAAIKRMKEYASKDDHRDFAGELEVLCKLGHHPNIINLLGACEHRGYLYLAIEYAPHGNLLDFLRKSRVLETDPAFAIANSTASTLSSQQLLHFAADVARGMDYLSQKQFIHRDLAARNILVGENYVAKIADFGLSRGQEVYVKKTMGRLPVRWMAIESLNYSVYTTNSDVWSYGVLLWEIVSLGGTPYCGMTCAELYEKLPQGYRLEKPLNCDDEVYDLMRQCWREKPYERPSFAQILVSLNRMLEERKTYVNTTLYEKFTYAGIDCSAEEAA

IC50 ([1]; Table 5): 0.089 µM | IC50 [1, 4]: 0.047 µM | IC50 ([2]; Table 5): 0.027 µM | IC50 [2, 4]: 0.014 µM | IC50 ([3]; Table 5): 0.018 µM | IC50 [3, 4]: 0.005 µM
SMILES: Cc1cc(Nc2cc(N3CC(F)(C4CC4)C3)nc(Sc3ccc(NC(=O)CC(F)(F)F)cc3)n2)[nH]n1 [Compound I-14, N-(4-(4-(3-methyl-1H-pyrazol-5-ylamino)-6-(3-cyclopropyl-3-fluoroazetidin-1-yl)pyrimidin-2-ylthio)phenyl)-3,3,3-trifluoropropanamide]

Source: patent US8129399B2, “Aminopyrimidines useful as kinase inhibitors” (Vertex Pharmaceuticals Incorporated, priority 2005, dated 2012)
